Measurements published in patent US20240197767A1, “COMBINATION OF ZIDOVUDINE WITH A TETRACYCLINE ANTIBIOTIC” (Helperby Therapeutics Limited, priority 2019, published 2024).

How the values were obtained:
Test in all cases: Chequerboard MIC/synergy testing of zidovudine and doxycycline, log phase bacteria
Assay type in all cases: cell-based
[1] = test system: BAA2470 NDM-1 Klebsiella pneumoniae; conditions: strain BAA2470, doxycycline alone
Procedure: (§1) Synergy in the context of antimicrobial drugs is measured in a number of ways that conform to the generally accepted opinion that “synergy is an effect greater than additive”. One of the ways to assess whether synergy has been observed is to use the “chequerboard” technique. This is a well-accepted method that leads to the generation of a value called the fractional inhibitory concentration index (FICI). Orhan et al., J. Clin. Microbiol. 2005, 43(1):140 describes the chequerboard method and analysis in the paragraph bridging pages 140-141, and explains that the FICI value is a ratio of the sum of the MIC (Minimum Inhibitory Concentration) level of each individual component alone and in the mixture. The combination is considered synergistic when the ΣFIC is ≤0.5, indifferent when the ΣFIC is >0.5 but <4.0, and antagonistic when the ΣFIC is >4.0.
(§2) The chequerboard method used in Example 1 followed the protocols detailed in Antimicrob Chemo (2013) 68, 374-384. Zidovudine and doxycycline were obtained from commercially available sources. The bacteria used were BAA2469 NDM-1 Escherichia coli, BAA2470 NDM-1 Klebsiella pneumoniae, BAA2471 NDM-1 Escherichia coli, BAA2472 NDM-1 Klebsiella pneumoniae, and NCTC13443 NDM-1 Klebsiella pneumoniae. All strains were obtained from a commercial source and log phase growth of the bacteria was carried out using methods known in the art.
(§3) The effects of the combination of the present invention were examined by calculating the fractional inhibitory concentration index (FICI) of each combination, as follows:
(§4) (MIC of drug A,tested in combination)/(MIC of drug A,tested alone)+(MIC of drug B,tested in combination)/(MIC of drug B,tested alone).
(§5) The interaction of the combination was defined as showing synergy if the FICI was […], no interaction if the FICI was >0.5 but <4.0 and antagonism if the FICI was >4.0.

[2] = test system: BAA2471 NDM-1 Escherichia coli; conditions: BAA2471, read-out: MIC Doxycycline
Procedure: as §1, §2, §3, §4, §5

[3] = test system: BAA2469 NDM-1 Escherichia coli; conditions: strain BAA2469, doxycycline alone
Procedure: as §1, §2, §3, §4, §5

[4] = test system: BAA2472 NDM-1 Klebsiella pneumoniae; conditions: BAA2472, read-out: MIC Doxycycline
Procedure: as §1, §2, §3, §4, §5

[5] = test system: NCTC13443 NDM-1 Klebsiella pneumoniae; conditions: strain NCTC13443, doxycycline alone
Procedure: as §1, §2, §3, §4, §5

Work on `C[C@H]1c2cccc(O)c2C(=O)C2=C(O)[C@]3(O)C(=O)C(C(N)=O)=C(O)[C@@H](N(C)C)[C@@H]3[C@@H](O)[C@@H]21` [Doxycycline, (4S,4aR,5S,5aR,6R,12aR)-4-(dimethylamino)-1,5,10,11,12a-pentahydroxy-6-methyl-3,12-dioxo-4a,5,5a,6-tetrahydro-4H-tetracene-2-carboxamide] yielded an MIC [1] of 64 µg/mL, an MIC [2] of 32 µg/mL and an MIC [3] of 64 µg/mL. For the same compound, the MIC [4] was 16 µg/mL and the MIC [5] was 32 µg/mL.
